“And” between values parts separate entries of the source, which are not always exact repeats. Equal values may be shown once.

Chain of PBK (human) (Q96KB5 whole entry, looked up): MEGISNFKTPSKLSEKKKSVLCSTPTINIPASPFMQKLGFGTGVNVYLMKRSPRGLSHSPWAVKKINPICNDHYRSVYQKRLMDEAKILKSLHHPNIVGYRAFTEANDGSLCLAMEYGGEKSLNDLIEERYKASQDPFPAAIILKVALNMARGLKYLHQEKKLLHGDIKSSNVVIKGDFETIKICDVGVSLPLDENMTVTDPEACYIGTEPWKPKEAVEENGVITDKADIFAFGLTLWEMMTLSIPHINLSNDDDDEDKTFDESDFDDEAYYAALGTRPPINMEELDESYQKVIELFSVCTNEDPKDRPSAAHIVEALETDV
Chain of RET (human) (P07949 whole entry, looked up): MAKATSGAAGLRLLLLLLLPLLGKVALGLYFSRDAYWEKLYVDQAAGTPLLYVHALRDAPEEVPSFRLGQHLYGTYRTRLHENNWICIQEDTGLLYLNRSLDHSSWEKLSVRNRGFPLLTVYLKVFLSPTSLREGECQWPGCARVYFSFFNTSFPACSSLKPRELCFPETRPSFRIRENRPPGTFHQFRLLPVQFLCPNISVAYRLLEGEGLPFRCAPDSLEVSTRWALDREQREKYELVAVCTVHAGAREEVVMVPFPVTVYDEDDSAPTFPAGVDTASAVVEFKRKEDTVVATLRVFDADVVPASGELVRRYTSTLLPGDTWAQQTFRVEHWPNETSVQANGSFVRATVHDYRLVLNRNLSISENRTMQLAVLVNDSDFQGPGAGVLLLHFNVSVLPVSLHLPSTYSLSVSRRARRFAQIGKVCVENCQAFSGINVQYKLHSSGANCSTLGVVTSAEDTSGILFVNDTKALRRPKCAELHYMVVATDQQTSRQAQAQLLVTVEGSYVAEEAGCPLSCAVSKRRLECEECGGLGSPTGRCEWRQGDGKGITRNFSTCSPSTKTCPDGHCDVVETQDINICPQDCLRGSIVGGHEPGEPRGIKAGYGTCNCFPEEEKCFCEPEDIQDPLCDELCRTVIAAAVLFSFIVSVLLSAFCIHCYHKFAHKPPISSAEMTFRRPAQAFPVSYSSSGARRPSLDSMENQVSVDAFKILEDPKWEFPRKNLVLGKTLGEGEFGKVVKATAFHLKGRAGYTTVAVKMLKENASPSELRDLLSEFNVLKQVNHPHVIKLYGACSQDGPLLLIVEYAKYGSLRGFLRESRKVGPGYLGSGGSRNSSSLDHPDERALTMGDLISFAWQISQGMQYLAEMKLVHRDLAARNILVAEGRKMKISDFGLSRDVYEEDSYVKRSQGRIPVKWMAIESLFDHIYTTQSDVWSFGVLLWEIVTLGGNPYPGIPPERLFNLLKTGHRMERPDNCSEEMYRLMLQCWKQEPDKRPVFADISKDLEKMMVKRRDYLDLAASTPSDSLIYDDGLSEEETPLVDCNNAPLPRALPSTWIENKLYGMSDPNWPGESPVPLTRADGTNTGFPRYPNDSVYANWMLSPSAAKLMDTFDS
Chain of PNCK (human) (Q6P2M8 whole entry, looked up): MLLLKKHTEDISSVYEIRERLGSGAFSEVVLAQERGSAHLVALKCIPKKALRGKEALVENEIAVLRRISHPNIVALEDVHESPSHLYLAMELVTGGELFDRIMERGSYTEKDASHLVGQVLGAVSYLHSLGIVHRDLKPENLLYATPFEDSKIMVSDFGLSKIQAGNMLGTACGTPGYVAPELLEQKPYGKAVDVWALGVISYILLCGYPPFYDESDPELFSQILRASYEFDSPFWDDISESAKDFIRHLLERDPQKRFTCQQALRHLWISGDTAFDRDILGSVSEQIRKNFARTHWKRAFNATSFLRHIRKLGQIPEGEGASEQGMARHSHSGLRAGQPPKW

The target of the first experiment is MKNK2 (human) (UniProt Q9HBH9). Description: radiometric filter-binding kinase assay, Kinase HotSpot. The conditions noted are these: compound 0.5 µM; ATP 10 µM.
With `O=C1NC(=O)C(c2cn(CCCn3ccnc3)c3ccccc23)=C1Nc1ccccc1`, the residual activity (as a rule, the signal under treatment as a percentage of the control signal) came out at 87.2%.
Turning to `CCCC(=O)Oc1ccc2[nH]c(C(=O)c3cc4ccccc4[nH]3)cc2c1`, the residual activity came out at 105%.
The same measure, in the same setting: next, `Nc1ncnc2c1c(-c1ccc(Oc3ccccc3)cc1)cn2C1CCCC1`: 94.9%.

The next experiment concerns the target PAK1 (human) (UniProt Q13153). The description is as above. The conditions noted are these: compound 0.5 µM; ATP 10 µM.
Turning to `O=C1NC(=O)C(c2cn(CCCn3ccnc3)c3ccccc23)=C1Nc1ccccc1`, the residual activity was determined as 92.9%.
Same read-out and setting: the value for `CCCC(=O)Oc1ccc2[nH]c(C(=O)c3cc4ccccc4[nH]3)cc2c1` was 95.8%; that for `Nc1ncnc2c1c(-c1ccc(Oc3ccccc3)cc1)cn2C1CCCC1` was 96%.

Another experiment addresses PBK (human) (UniProt Q96KB5). Described as above. The conditions noted are these: compound 0.5 µM; ATP 10 µM.
Take `O=C1NC(=O)C(c2cn(CCCn3ccnc3)c3ccccc23)=C1Nc1ccccc1`: the residual activity came out at 104%.
The same measure, in the same setting: the value for `CCCC(=O)Oc1ccc2[nH]c(C(=O)c3cc4ccccc4[nH]3)cc2c1` was 104%; that for `Nc1ncnc2c1c(-c1ccc(Oc3ccccc3)cc1)cn2C1CCCC1` was 114%.

Another experiment concerns the target PNCK (human) (UniProt Q6P2M8). Described as above. The conditions noted are these: compound 0.5 µM; ATP 10 µM.
On to `O=C1NC(=O)C(c2cn(CCCn3ccnc3)c3ccccc23)=C1Nc1ccccc1`, for which the residual activity stood at 90.6%.
The same measure, in the same setting: the value for `CCCC(=O)Oc1ccc2[nH]c(C(=O)c3cc4ccccc4[nH]3)cc2c1` was 99.4%; that for `Nc1ncnc2c1c(-c1ccc(Oc3ccccc3)cc1)cn2C1CCCC1` was 96.2%.

A further experiment addresses PRKACA (human) (UniProt P17612). The experiment is described as above. The conditions noted are these: compound 0.5 µM; ATP 10 µM.
For the compound `O=C1NC(=O)C(c2cn(CCCn3ccnc3)c3ccccc23)=C1Nc1ccccc1`, the residual activity worked out at 94%.
On to `CCCC(=O)Oc1ccc2[nH]c(C(=O)c3cc4ccccc4[nH]3)cc2c1`, for which the residual activity was found to be 96.6%.
For the compound `Nc1ncnc2c1c(-c1ccc(Oc3ccccc3)cc1)cn2C1CCCC1`, the residual activity was found to be 100%.

The next experiment deals with PRKCA (human) (UniProt P17252). The experiment is described as above. Conditions: compound 0.5 µM; ATP 10 µM.
In the case of `O=C1NC(=O)C(c2cn(CCCn3ccnc3)c3ccccc23)=C1Nc1ccccc1`, the residual activity turned out to be 32%.
For `CCCC(=O)Oc1ccc2[nH]c(C(=O)c3cc4ccccc4[nH]3)cc2c1`, the residual activity worked out at 102%.
Consider `Nc1ncnc2c1c(-c1ccc(Oc3ccccc3)cc1)cn2C1CCCC1`, for which the residual activity came to 106%.

For a further experiment, the target named is PRKD3 (human) (UniProt O94806). The experiment is described as above. The conditions noted are these: compound 0.5 µM; ATP 10 µM.
With `O=C1NC(=O)C(c2cn(CCCn3ccnc3)c3ccccc23)=C1Nc1ccccc1`, the residual activity worked out at 80%.
Still for that read-out and setting: next, `CCCC(=O)Oc1ccc2[nH]c(C(=O)c3cc4ccccc4[nH]3)cc2c1`: 102%.
Turning to `Nc1ncnc2c1c(-c1ccc(Oc3ccccc3)cc1)cn2C1CCCC1`, the residual activity was 89.4%.

The target of a further experiment is PRKG1 (human) (UniProt Q13976). Described as above. Conditions: compound 0.5 µM; ATP 10 µM.
Turning to `O=C1NC(=O)C(c2cn(CCCn3ccnc3)c3ccccc23)=C1Nc1ccccc1`, the residual activity is 88.8% and 89.3%.
Same read-out and setting: next, `CCCC(=O)Oc1ccc2[nH]c(C(=O)c3cc4ccccc4[nH]3)cc2c1`: 104% and 95.1%; `Nc1ncnc2c1c(-c1ccc(Oc3ccccc3)cc1)cn2C1CCCC1`: 103% and 96.4%.

The next experiment concerns the target RET (human) (UniProt P07949). The experiment is described as above. Conditions: compound 0.5 µM; ATP 10 µM.
`O=C1NC(=O)C(c2cn(CCCn3ccnc3)c3ccccc23)=C1Nc1ccccc1`: the residual activity amounted to 95.6%.
Still for that read-out and setting: next, `CCCC(=O)Oc1ccc2[nH]c(C(=O)c3cc4ccccc4[nH]3)cc2c1`: 100%; `Nc1ncnc2c1c(-c1ccc(Oc3ccccc3)cc1)cn2C1CCCC1`: 9.97%.

The target of the next experiment is SGK3 (human) (UniProt Q96BR1). Described as above. The conditions noted are these: compound 0.5 µM; ATP 10 µM.
`O=C1NC(=O)C(c2cn(CCCn3ccnc3)c3ccccc23)=C1Nc1ccccc1`: the residual activity turned out to be 89.9%.
Turning to `CCCC(=O)Oc1ccc2[nH]c(C(=O)c3cc4ccccc4[nH]3)cc2c1`, the residual activity came to 102%.
On the same count and under the same terms, the value for `Nc1ncnc2c1c(-c1ccc(Oc3ccccc3)cc1)cn2C1CCCC1` was 112%.

A further experiment addresses SRPK2 (human) (UniProt P78362). The description is as above. Conditions: compound 0.5 µM; ATP 10 µM.
Take `O=C1NC(=O)C(c2cn(CCCn3ccnc3)c3ccccc23)=C1Nc1ccccc1`: the residual activity amounted to 96.2%.
For `CCCC(=O)Oc1ccc2[nH]c(C(=O)c3cc4ccccc4[nH]3)cc2c1`, the residual activity stood at 89.4%.
The same measure, in the same setting: the value for `Nc1ncnc2c1c(-c1ccc(Oc3ccccc3)cc1)cn2C1CCCC1` was 93.4%.

For the next experiment, the target named is SRPK3 (human) (UniProt Q9UPE1). The description is as above. The conditions noted are these: compound 0.5 µM; ATP 10 µM.
Chain of SRPK3 (human) (Q9UPE1 whole entry, looked up): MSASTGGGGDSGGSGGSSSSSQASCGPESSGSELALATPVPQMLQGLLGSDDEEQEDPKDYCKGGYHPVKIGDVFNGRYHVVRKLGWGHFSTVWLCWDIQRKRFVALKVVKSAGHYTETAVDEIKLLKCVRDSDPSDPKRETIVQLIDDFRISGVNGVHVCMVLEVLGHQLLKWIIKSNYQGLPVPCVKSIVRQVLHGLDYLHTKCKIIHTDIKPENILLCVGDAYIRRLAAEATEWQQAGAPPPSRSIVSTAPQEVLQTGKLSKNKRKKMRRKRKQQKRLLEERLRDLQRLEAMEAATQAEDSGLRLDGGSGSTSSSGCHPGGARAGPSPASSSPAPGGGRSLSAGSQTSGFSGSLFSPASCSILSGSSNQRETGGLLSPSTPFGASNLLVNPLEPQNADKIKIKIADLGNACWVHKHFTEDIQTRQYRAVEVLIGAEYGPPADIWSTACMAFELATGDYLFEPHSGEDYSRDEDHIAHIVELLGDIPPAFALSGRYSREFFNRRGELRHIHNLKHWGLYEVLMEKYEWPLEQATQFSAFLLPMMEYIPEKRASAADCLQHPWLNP
Consider `O=C1NC(=O)C(c2cn(CCCn3ccnc3)c3ccccc23)=C1Nc1ccccc1`, for which the residual activity turned out to be 92.5%.
On the same count and under the same terms, the value for `CCCC(=O)Oc1ccc2[nH]c(C(=O)c3cc4ccccc4[nH]3)cc2c1` was 93.2%.
The same measure, in the same setting: next, `Nc1ncnc2c1c(-c1ccc(Oc3ccccc3)cc1)cn2C1CCCC1`: 95.7%.

The target of a further experiment is STK24 (human) (UniProt Q9Y6E0). The experiment is described as above. Conditions: compound 0.5 µM; ATP 10 µM.
Consider `O=C1NC(=O)C(c2cn(CCCn3ccnc3)c3ccccc23)=C1Nc1ccccc1`, for which the residual activity came to 51.7%.
The same measure, in the same setting: the value for `CCCC(=O)Oc1ccc2[nH]c(C(=O)c3cc4ccccc4[nH]3)cc2c1` was 95.5%.
Same read-out and setting: the value for `Nc1ncnc2c1c(-c1ccc(Oc3ccccc3)cc1)cn2C1CCCC1` was 100%.

The next experiment deals with STK38 (human) (UniProt Q15208). Described as above. The conditions noted are these: compound 0.5 µM; ATP 10 µM.
Chain of STK38 (human) (Q15208 whole entry, looked up): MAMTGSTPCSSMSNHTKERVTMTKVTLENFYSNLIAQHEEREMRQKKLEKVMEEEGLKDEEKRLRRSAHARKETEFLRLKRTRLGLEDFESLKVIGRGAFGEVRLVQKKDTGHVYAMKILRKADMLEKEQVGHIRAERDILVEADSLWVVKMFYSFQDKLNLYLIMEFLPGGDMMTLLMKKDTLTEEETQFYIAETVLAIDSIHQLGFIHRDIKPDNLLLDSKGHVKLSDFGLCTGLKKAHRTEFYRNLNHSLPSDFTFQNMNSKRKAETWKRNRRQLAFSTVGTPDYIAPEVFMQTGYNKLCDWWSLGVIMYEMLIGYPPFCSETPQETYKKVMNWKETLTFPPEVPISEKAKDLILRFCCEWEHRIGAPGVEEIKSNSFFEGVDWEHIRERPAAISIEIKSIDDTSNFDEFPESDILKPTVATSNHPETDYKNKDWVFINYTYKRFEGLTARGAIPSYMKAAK
On to `O=C1NC(=O)C(c2cn(CCCn3ccnc3)c3ccccc23)=C1Nc1ccccc1`, for which the residual activity came to 99.1%.
The same measure, in the same setting: next, `CCCC(=O)Oc1ccc2[nH]c(C(=O)c3cc4ccccc4[nH]3)cc2c1`: 96.9%; `Nc1ncnc2c1c(-c1ccc(Oc3ccccc3)cc1)cn2C1CCCC1`: 99.3%.

Another experiment concerns the target SYK (human) (UniProt P43405). The description is as above. Conditions: compound 0.5 µM; ATP 10 µM.
For the compound `O=C1NC(=O)C(c2cn(CCCn3ccnc3)c3ccccc23)=C1Nc1ccccc1`, the residual activity came out at 99.9%.
As to `CCCC(=O)Oc1ccc2[nH]c(C(=O)c3cc4ccccc4[nH]3)cc2c1`, the residual activity was 93.9%.
For the compound `Nc1ncnc2c1c(-c1ccc(Oc3ccccc3)cc1)cn2C1CCCC1`, the residual activity turned out to be 104%.

In the next experiment the target is TAOK1 (human) (UniProt Q7L7X3). The description is as above. Conditions: compound 0.5 µM; ATP 10 µM.
Chain of TAOK1 (human) (Q7L7X3 whole entry, looked up): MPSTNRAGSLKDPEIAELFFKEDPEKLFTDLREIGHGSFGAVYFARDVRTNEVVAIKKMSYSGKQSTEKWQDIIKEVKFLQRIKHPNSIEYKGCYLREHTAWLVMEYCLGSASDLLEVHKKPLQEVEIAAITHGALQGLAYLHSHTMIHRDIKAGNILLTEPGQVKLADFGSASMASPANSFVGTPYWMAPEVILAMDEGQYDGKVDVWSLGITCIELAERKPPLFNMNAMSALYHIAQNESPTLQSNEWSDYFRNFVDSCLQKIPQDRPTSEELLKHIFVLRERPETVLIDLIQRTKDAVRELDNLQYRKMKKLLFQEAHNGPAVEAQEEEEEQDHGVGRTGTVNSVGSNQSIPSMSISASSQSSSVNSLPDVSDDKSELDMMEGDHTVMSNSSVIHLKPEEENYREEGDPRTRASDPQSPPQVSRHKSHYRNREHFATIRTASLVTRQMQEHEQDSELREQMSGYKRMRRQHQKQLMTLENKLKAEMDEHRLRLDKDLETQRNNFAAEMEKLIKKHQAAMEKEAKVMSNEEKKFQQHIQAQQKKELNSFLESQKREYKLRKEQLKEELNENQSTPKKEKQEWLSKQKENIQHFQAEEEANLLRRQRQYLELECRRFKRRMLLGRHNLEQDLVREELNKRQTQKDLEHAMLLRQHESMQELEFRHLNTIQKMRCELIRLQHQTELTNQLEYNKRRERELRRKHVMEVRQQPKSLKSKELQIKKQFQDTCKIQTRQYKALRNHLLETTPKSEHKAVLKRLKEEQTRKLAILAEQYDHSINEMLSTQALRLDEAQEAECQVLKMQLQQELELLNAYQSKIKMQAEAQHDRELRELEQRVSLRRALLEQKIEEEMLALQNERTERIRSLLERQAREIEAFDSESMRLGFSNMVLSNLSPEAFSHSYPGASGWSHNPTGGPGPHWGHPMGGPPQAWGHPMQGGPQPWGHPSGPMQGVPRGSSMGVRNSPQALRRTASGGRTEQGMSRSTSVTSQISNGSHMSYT
As for `O=C1NC(=O)C(c2cn(CCCn3ccnc3)c3ccccc23)=C1Nc1ccccc1`, the residual activity is 101%.
With `CCCC(=O)Oc1ccc2[nH]c(C(=O)c3cc4ccccc4[nH]3)cc2c1`, the residual activity was 82.8%.
Consider `Nc1ncnc2c1c(-c1ccc(Oc3ccccc3)cc1)cn2C1CCCC1`, for which the residual activity is 84.6%.

For a further experiment, the target named is TBK1 (human) (UniProt Q9UHD2). Described as above. Conditions: compound 0.5 µM; ATP 10 µM.
Regarding `O=C1NC(=O)C(c2cn(CCCn3ccnc3)c3ccccc23)=C1Nc1ccccc1`, the residual activity is 48%.
Turning to `CCCC(=O)Oc1ccc2[nH]c(C(=O)c3cc4ccccc4[nH]3)cc2c1`, the residual activity was determined as 119%.
As to `Nc1ncnc2c1c(-c1ccc(Oc3ccccc3)cc1)cn2C1CCCC1`, the residual activity was found to be 92.7%.

Another experiment has as its target TEC (human) (UniProt P42680). The description is as above. The conditions noted are these: compound 0.5 µM; ATP 10 µM.
On to `O=C1NC(=O)C(c2cn(CCCn3ccnc3)c3ccccc23)=C1Nc1ccccc1`, for which the residual activity stood at 162%.
The same measure, in the same setting: next, `CCCC(=O)Oc1ccc2[nH]c(C(=O)c3cc4ccccc4[nH]3)cc2c1`: 97.8%; `Nc1ncnc2c1c(-c1ccc(Oc3ccccc3)cc1)cn2C1CCCC1`: 8.33%.

The next experiment deals with TGFBR2 (human) (UniProt P37173). Described as above. The conditions noted are these: compound 0.5 µM; ATP 10 µM.
Chain of TGFBR2 (human) (P37173 whole entry, looked up): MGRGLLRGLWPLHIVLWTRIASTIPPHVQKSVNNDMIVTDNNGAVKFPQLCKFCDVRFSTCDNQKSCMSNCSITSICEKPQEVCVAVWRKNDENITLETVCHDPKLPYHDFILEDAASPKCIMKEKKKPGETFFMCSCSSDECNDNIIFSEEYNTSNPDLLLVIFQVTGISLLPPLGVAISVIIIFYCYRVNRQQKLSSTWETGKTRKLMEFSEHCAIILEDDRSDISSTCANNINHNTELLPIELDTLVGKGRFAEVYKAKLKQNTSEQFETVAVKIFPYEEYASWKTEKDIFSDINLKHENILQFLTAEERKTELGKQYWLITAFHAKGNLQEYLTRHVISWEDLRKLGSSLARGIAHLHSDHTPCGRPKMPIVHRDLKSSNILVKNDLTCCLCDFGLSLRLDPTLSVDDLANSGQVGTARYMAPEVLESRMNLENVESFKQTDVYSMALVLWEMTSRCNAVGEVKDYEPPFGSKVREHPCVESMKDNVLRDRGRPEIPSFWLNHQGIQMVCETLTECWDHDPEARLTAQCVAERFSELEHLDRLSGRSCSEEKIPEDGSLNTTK
`O=C1NC(=O)C(c2cn(CCCn3ccnc3)c3ccccc23)=C1Nc1ccccc1`: the residual activity is 134%.
On the same count and under the same terms, the value for `CCCC(=O)Oc1ccc2[nH]c(C(=O)c3cc4ccccc4[nH]3)cc2c1` was 101%.
For the compound `Nc1ncnc2c1c(-c1ccc(Oc3ccccc3)cc1)cn2C1CCCC1`, the residual activity came to 166%.

The target of a further experiment is TSSK2 (human) (UniProt Q96PF2). Described as above. Conditions: compound 0.5 µM; ATP 10 µM.
Consider `O=C1NC(=O)C(c2cn(CCCn3ccnc3)c3ccccc23)=C1Nc1ccccc1`, for which the residual activity was 97.9%.
Still for that read-out and setting: next, `CCCC(=O)Oc1ccc2[nH]c(C(=O)c3cc4ccccc4[nH]3)cc2c1`: 78%; `Nc1ncnc2c1c(-c1ccc(Oc3ccccc3)cc1)cn2C1CCCC1`: 92.1%.

In another experiment the target is VRK1 (human) (UniProt Q99986). The description is as above. Conditions: compound 0.5 µM; ATP 10 µM.
Take `O=C1NC(=O)C(c2cn(CCCn3ccnc3)c3ccccc23)=C1Nc1ccccc1`: the residual activity came to 98.7%.
Still for that read-out and setting: next, `CCCC(=O)Oc1ccc2[nH]c(C(=O)c3cc4ccccc4[nH]3)cc2c1`: 85.9%.
On the same count and under the same terms, next, `Nc1ncnc2c1c(-c1ccc(Oc3ccccc3)cc1)cn2C1CCCC1`: 84.8%.

The values are drawn from the kinase profiling compilation of Christmann-Franck et al. (2016).
